From paper PMC9150124, “Design of a Potent, Selective, and Brain-Penetrant Inhibitor of Wnt-Deactivating Enzyme Notum by Optimization of a Crystallographic Fragment Hit” (Journal of Medicinal Chemistry, 2022)

Key:
Assay in all cases: SelectScreen kinase profiling, SSBK LanthaScreen Binding SP Technology
[1] = target: kinase named in conditions (Homo sapiens, UniProt P49336); settings: CDK8/cyclin C, 10 μM
[2] = target: kinase named in conditions (Homo sapiens, UniProt Q92630); settings: DYRK2, 10 μM
[3] = target: kinase named in conditions (Homo sapiens, UniProt Q8IYT8); settings: ULK2, 10 μM
[4] = target: kinase named in conditions (Homo sapiens, UniProt Q13131); settings: 10 μM
kinase named in conditions (Homo sapiens, UniProt Q13131), sequence (Q13131 whole entry): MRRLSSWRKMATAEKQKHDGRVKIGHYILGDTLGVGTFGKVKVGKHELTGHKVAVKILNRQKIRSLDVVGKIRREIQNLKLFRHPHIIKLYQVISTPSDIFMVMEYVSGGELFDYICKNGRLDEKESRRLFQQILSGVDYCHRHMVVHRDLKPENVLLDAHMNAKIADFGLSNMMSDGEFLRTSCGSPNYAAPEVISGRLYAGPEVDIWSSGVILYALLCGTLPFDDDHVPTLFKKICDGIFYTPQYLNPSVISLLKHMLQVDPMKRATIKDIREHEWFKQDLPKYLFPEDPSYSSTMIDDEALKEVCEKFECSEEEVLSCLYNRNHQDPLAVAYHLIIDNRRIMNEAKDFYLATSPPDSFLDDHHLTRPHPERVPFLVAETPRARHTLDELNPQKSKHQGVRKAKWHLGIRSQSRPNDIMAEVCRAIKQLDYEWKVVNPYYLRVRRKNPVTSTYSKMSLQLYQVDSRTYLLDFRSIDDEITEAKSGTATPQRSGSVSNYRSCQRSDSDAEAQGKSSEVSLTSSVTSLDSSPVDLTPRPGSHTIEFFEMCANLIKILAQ

[5] = target: kinase named in conditions (Homo sapiens, UniProt Q15746); settings: MYLK (MLCK), 10 μM
[6] = target: kinase named in conditions (Homo sapiens, UniProt O94768); settings: STK17B (DRAK2), 10 μM
[7] = target: kinase named in conditions (Homo sapiens, UniProt Q8IVH8); settings: MAP4K3 (GLK), 10 μM
[8] = target: kinase named in conditions (Homo sapiens, UniProt O14976); settings: GAK, 10 μM
[9] = target: kinase named in conditions (Homo sapiens, UniProt P36894); settings: BMPR1A (ALK3), 10 μM
kinase named in conditions (Homo sapiens, UniProt P36894), sequence (P36894 24-532): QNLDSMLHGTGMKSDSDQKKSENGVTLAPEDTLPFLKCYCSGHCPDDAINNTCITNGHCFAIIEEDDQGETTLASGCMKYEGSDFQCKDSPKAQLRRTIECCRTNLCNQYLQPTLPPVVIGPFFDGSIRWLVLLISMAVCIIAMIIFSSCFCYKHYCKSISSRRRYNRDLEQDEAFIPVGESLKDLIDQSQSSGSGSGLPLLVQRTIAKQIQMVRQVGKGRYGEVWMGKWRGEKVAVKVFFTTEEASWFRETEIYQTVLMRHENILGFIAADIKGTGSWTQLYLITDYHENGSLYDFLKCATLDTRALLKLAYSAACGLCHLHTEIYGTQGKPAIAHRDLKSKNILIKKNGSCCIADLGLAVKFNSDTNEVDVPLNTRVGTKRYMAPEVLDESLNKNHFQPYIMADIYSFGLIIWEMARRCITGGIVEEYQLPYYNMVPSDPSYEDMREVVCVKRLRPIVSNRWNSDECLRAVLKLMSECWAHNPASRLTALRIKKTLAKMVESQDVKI

[10] = target: kinase named in conditions (Homo sapiens, UniProt Q02750, S218D/S222D); settings: MAP2K1 (MEK1) S218D S222D, 10 μM
kinase named in conditions (Homo sapiens, UniProt Q02750, S218D/S222D), sequence (Q02750 whole entry S218D/S222D): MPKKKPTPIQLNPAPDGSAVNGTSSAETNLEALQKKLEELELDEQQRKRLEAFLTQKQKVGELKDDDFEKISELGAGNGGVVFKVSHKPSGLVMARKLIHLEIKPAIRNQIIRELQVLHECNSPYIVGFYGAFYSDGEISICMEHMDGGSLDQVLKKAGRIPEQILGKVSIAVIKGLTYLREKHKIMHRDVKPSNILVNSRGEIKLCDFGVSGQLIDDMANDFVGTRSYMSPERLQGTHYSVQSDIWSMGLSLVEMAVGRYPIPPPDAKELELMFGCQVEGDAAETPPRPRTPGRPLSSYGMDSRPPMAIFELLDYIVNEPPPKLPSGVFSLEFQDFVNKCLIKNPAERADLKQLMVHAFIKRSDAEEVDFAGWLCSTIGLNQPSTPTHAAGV

[11] = target: kinase named in conditions (Homo sapiens, UniProt P30291); settings: WEE1, 10 μM
[12] = target: kinase named in conditions (Homo sapiens, UniProt Q8NEV4); settings: MYO3A (MYO3 alpha), 10 μM
[13] = target: kinase named in conditions (Homo sapiens, UniProt O75460); settings: ERN1, 10 μM
[14] = target: kinase named in conditions (Homo sapiens, UniProt Q9H093); settings: NUAK2, 10 μM
kinase named in conditions (Homo sapiens, UniProt Q9H093), sequence (Q9H093 whole entry): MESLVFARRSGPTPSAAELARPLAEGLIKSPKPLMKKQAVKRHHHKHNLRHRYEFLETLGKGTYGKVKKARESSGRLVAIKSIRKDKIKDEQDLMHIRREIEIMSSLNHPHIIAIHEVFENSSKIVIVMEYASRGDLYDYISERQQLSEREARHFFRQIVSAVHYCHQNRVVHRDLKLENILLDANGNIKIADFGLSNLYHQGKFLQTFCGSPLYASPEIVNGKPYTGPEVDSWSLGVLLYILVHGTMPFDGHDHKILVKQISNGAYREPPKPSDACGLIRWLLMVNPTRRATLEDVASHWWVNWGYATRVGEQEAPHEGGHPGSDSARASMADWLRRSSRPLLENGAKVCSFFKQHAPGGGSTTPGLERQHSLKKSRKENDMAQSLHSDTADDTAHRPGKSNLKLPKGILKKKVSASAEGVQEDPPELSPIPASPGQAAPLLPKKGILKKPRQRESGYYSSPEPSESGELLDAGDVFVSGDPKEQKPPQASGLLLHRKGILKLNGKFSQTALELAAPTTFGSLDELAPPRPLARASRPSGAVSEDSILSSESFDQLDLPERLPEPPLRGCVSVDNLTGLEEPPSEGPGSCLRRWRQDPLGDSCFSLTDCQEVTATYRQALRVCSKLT

[15] = target: kinase named in conditions (Homo sapiens, UniProt O75716); settings: STK16 (PKL12), 10 μM
kinase named in conditions (Homo sapiens, UniProt O75716), sequence (O75716 whole entry): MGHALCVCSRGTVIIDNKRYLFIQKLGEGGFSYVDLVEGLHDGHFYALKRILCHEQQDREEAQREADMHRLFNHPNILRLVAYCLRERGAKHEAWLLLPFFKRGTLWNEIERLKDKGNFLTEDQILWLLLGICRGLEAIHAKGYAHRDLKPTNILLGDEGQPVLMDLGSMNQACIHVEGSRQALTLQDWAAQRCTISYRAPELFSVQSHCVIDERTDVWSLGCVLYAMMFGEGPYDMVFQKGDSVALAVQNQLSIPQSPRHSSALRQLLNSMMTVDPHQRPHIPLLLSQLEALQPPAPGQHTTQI

[16] = target: kinase named in conditions (Homo sapiens, UniProt Q9UEW8); settings: STK39 (STLK3), 10 μM
[17] = target: kinase named in conditions (Homo sapiens, UniProt P10721, D816H); settings: KIT D816H, 10 μM
[18] = target: kinase named in conditions (Homo sapiens, UniProt Q9UBE8); settings: NLK, 10 μM
[19] = target: kinase named in conditions (Homo sapiens, UniProt Q12866, A708S); settings: MERTK (cMER) A708S, 10 μM
[20] = target: kinase named in conditions (Homo sapiens, UniProt Q02779); settings: MAP3K10 (MLK2), 10 μM
[21] = target: kinase named in conditions (Homo sapiens, UniProt Q8NI60); settings: ADCK3, 10 μM
kinase named in conditions (Homo sapiens, UniProt Q8NI60), sequence (Q8NI60 163-647): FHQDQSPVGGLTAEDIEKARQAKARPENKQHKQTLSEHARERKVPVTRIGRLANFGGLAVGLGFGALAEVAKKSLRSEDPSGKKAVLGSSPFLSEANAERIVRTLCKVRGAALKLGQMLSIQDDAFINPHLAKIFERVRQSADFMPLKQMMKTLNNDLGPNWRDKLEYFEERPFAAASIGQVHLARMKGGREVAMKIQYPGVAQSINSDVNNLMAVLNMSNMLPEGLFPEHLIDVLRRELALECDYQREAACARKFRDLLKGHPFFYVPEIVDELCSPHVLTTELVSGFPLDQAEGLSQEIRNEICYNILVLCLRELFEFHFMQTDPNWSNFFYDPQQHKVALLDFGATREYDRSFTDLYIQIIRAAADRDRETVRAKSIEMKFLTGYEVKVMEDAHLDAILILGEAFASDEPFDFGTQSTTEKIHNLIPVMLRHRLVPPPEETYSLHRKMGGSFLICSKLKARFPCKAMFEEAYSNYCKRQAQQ

[22] = target: kinase named in conditions (Homo sapiens, UniProt P07949, M918T); settings: RET M918T, 10 μM
[23] = target: kinase named in conditions (Homo sapiens, UniProt Q9UM73, L1196M); settings: ALK L1196M, 10 μM
[24] = target: kinase named in conditions (Homo sapiens, UniProt P50750); settings: 10 μM
kinase named in conditions (Homo sapiens, UniProt P50750), sequence (P50750 whole entry): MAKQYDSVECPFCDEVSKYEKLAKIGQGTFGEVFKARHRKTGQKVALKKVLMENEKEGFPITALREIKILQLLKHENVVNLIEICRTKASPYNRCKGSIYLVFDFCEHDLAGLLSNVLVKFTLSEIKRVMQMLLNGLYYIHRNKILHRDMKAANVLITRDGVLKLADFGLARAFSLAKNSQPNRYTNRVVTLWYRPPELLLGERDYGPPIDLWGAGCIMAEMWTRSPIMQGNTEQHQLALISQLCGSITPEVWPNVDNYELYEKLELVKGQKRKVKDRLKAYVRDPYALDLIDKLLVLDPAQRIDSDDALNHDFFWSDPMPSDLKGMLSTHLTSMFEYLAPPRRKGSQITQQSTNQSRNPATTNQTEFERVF

[25] = target: kinase named in conditions (Homo sapiens, UniProt Q15569); settings: TESK1, 10 μM
[26] = target: kinase named in conditions (Homo sapiens, UniProt Q2M2I8); settings: AAK1, 10 μM
[27] = target: kinase named in conditions (Homo sapiens, UniProt Q9NY57); settings: STK32B (YANK2), 10 μM
[28] = target: kinase named in conditions (Homo sapiens, UniProt Q16832, T654M); settings: DDR2 T654M, 10 μM
[29] = target: kinase named in conditions (Homo sapiens, UniProt P08581, D1228H); settings: MET D1228H, 10 μM
[30] = target: kinase named in conditions (Homo sapiens, UniProt Q9UPZ9); settings: ICK, 10 μM
[31] = target: kinase named in conditions (Homo sapiens, UniProt P19525); settings: EIF2AK2 (PKR), 10 μM
[32] = target: kinase named in conditions (Homo sapiens, UniProt Q86Y07); settings: VRK2, 10 μM
[33] = target: kinase named in conditions (Homo sapiens, UniProt Q9BYP7); settings: WNK3, 10 μM
kinase named in conditions (Homo sapiens, UniProt Q9BYP7), sequence (Q9BYP7 whole entry): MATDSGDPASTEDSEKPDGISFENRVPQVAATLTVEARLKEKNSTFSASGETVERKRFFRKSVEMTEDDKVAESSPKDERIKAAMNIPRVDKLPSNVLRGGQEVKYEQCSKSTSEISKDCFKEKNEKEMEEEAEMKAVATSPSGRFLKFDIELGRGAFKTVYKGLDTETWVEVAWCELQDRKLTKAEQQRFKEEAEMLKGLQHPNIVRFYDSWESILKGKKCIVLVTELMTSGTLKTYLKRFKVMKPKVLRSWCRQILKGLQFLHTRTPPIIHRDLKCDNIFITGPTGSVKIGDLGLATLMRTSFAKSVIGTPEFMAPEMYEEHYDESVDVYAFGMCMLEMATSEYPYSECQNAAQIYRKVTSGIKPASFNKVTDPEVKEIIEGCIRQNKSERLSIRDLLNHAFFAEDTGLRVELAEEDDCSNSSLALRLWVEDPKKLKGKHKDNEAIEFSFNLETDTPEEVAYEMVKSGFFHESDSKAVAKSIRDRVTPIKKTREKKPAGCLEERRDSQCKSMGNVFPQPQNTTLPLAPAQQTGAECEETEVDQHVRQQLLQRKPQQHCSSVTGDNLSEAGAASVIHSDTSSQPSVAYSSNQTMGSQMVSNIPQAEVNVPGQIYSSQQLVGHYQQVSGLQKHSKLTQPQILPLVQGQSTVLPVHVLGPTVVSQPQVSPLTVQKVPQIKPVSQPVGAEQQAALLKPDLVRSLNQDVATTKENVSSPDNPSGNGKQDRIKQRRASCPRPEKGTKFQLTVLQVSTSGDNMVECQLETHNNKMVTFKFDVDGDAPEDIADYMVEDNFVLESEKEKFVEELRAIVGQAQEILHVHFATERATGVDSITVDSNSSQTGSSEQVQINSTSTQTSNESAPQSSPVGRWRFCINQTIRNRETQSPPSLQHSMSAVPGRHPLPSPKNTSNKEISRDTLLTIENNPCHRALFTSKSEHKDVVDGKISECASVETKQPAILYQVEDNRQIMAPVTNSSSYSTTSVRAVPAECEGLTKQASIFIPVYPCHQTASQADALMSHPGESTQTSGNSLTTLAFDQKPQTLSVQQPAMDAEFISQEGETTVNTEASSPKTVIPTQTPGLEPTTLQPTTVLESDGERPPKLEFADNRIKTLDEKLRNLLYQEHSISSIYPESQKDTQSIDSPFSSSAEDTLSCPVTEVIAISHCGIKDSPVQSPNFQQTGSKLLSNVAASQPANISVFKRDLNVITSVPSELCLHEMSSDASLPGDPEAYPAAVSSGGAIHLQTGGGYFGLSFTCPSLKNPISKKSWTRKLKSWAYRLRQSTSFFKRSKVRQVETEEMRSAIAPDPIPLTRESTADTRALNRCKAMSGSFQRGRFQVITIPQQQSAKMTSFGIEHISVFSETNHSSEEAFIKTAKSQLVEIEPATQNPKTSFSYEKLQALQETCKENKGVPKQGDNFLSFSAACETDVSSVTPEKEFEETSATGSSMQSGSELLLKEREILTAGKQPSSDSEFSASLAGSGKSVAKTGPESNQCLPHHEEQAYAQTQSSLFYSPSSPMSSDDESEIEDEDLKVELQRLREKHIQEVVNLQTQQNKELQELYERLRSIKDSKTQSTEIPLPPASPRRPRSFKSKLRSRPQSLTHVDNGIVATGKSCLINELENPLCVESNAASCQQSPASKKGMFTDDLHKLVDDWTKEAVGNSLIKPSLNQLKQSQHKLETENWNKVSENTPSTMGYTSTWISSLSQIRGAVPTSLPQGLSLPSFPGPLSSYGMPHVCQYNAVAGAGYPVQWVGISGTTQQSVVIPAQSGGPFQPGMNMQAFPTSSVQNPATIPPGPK

[34] = target: kinase named in conditions (Homo sapiens, UniProt P53671); settings: LIMK2, 10 μM

Q: How did the inhibition at 10 µM [1] turn out when `FC(F)(F)c1c(Cl)ccc(-n2ccnn2)c1Cl` [8l, 1-(2,4-Dichloro-3-(trifluoromethyl)phenyl)-1H-1,2,3-triazole] was run?
A: Its inhibition at 10 µM is 18%.

Q: And the inhibition at 10 µM [2]?
A: Its inhibition at 10 µM is -1%.

Q: And the inhibition at 10 µM [3]?
A: The inhibition at 10 µM was 8%.

Q: What about the inhibition at 10 µM ([4]; AMPK (A1/B1/G2)) of the same molecule?
A: Its inhibition at 10 µM is -13%.

Q: And the inhibition at 10 µM ([4]; AMPK (A1/B1/G3))?
A: The inhibition at 10 µM was -4%.

Q: And the inhibition at 10 µM ([4]; AMPK (A1/B2/G1))?
A: Its inhibition at 10 µM is 6%.

Q: What about the inhibition at 10 µM [5] of the same molecule?
A: Its inhibition at 10 µM is 3%.

Q: What about the inhibition at 10 µM [6] of the same molecule?
A: Its inhibition at 10 µM is 14%.

Q: And the inhibition at 10 µM [7]?
A: Its inhibition at 10 µM is 6%.

Q: And the inhibition at 10 µM [8]?
A: The inhibition at 10 µM was 17%.

Q: What about the inhibition at 10 µM [9] of the same molecule?
A: Its inhibition at 10 µM is 6%.

Q: And the inhibition at 10 µM [10]?
A: The inhibition at 10 µM was 2%.

Q: And the inhibition at 10 µM [11]?
A: The inhibition at 10 µM was 9%.

Q: And the inhibition at 10 µM [12]?
A: The inhibition at 10 µM was -6%.

Q: What about the inhibition at 10 µM [13] of the same molecule?
A: The inhibition at 10 µM was -4%.

Q: And the inhibition at 10 µM [14]?
A: Its inhibition at 10 µM is 7%.

Q: What about the inhibition at 10 µM [15] of the same molecule?
A: The inhibition at 10 µM was 17%.

Q: And the inhibition at 10 µM [16]?
A: Its inhibition at 10 µM is 13%.

Q: And the inhibition at 10 µM [17]?
A: Its inhibition at 10 µM is -2%.

Q: And the inhibition at 10 µM [18]?
A: The inhibition at 10 µM was 5%.

Q: What about the inhibition at 10 µM [19] of the same molecule?
A: Its inhibition at 10 µM is -3%.

Q: What about the inhibition at 10 µM [20] of the same molecule?
A: Its inhibition at 10 µM is 1%.

Q: What about the inhibition at 10 µM [21] of the same molecule?
A: Its inhibition at 10 µM is 12%.

Q: And the inhibition at 10 µM [22]?
A: The inhibition at 10 µM was 9%.

Q: What about the inhibition at 10 µM [23] of the same molecule?
A: The inhibition at 10 µM was -3%.

Q: And the inhibition at 10 µM ([24]; CDK9 (Inactive))?
A: The inhibition at 10 µM was -5%.

Q: What about the inhibition at 10 µM ([24]; CDK9/cyclin K) of the same molecule?
A: Its inhibition at 10 µM is -10%.

Q: What about the inhibition at 10 µM [25] of the same molecule?
A: Its inhibition at 10 µM is 7%.

Q: What about the inhibition at 10 µM [26] of the same molecule?
A: The inhibition at 10 µM was 1%.

Q: What about the inhibition at 10 µM [27] of the same molecule?
A: The inhibition at 10 µM was 12%.

Q: What about the inhibition at 10 µM [28] of the same molecule?
A: The inhibition at 10 µM was -9%.

Q: What about the inhibition at 10 µM [29] of the same molecule?
A: Its inhibition at 10 µM is -13%.

Q: What about the inhibition at 10 µM [30] of the same molecule?
A: The inhibition at 10 µM was -6%.

Q: What about the inhibition at 10 µM [31] of the same molecule?
A: Its inhibition at 10 µM is 6%.

Q: What about the inhibition at 10 µM [32] of the same molecule?
A: The inhibition at 10 µM was -11%.

Q: And the inhibition at 10 µM [33]?
A: Its inhibition at 10 µM is -10%.

Q: What about the inhibition at 10 µM [34] of the same molecule?
A: Its inhibition at 10 µM is -3%.
